Here are results for 16 compounds from US20260116868A1 (Arcus Biosciences, Inc., priority 2023, published 2026).

For one assay, the target named is T1, Cbl-b (Homo sapiens, UniProt Q13191).
T1 construct: biotin (biotinylated protein)
As to the kind of experiment: Cbl-b probe displacement HTRF binding assay. The conditions noted are these: 0.4 nM Cbl-b, 150 nM BODIPY probe. In short, it runs like this: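 Compound competes with BODIPY probe (150 nM) for biotinylated Cbl-b (0.4 nM) in HEPES/NaCl/Triton/TCEP/BSA buffer; 60 min preincubation, 15 min with probe, room temperature. Tb-streptavidin HTRF read; % displacement vs DMSO and no-protein controls, IC50 from four-parameter fit.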

The next assay concerns Jurkat cells. As to the kind of experiment: IL-2 secretion assay in Jurkat cells activated with CD3/CD28 T Cell Activator. Format: cell-based. The conditions noted are these: Homo sapiens; Jurkat cells, CD3/CD28 T Cell Activator, 24 h, IL-2 AlphaLISA; read-out: IL-2 Secretion (EC50). In short, it runs like this: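 Jurkat cells in Opti-MEM were preincubated 1 h at 37° C with compound (final 10 μM to 300 pM, 16-point 1:2 dilution), then activated with human CD3/CD28 T Cell Activator for 24 h at 37° C. Supernatant IL-2 measured by AlphaLISA; EC50 from 4-parameter logistic fit.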

By IC50 is commonly meant the concentration that inhibits the measured activity by half. A high value points to lower potency. As usually defined, the EC50 is the concentration needed to bring the measured effect to its halfway point.

T1 sequence (Q13191 whole entry, species assumed): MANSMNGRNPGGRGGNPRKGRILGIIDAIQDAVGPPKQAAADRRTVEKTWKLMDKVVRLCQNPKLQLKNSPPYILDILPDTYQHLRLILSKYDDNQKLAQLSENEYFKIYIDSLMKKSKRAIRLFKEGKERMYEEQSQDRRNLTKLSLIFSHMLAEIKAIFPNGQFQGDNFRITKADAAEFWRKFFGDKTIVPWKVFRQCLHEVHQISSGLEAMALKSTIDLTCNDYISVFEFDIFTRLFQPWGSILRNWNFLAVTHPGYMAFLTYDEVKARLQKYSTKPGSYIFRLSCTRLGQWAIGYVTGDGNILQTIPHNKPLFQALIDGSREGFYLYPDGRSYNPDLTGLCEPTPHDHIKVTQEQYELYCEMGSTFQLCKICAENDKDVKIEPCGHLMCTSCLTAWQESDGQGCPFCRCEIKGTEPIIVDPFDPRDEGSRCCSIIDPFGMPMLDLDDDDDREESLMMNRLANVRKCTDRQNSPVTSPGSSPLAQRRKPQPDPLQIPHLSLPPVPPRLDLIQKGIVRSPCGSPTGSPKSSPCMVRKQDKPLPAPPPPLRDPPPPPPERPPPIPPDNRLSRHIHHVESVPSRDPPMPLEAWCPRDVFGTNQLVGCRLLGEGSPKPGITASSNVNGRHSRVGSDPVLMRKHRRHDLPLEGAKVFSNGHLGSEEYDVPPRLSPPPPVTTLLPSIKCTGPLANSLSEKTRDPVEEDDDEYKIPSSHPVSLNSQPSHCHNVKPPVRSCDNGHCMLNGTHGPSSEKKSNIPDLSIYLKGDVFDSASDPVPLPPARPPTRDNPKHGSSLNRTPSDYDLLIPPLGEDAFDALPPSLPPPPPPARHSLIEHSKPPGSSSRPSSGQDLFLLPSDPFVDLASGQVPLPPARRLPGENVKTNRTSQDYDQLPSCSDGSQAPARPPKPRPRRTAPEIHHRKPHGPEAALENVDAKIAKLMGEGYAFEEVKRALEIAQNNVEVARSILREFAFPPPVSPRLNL

For `CC(C)n1cc(CN2CCC[C@H](C)C2)cc(C(=O)Nc2cc(-c3ccc(F)cc3-c3nncn3C)cc(C3CC3)n2)c1=O` [Example 57, N-[6-cyclopropyl-4-[4-fluoro-2-(4-methyl-1,2,4-triazol-3-yl)phenyl]pyridin-2-yl]-5-[[(3S)-3-methylpiperidin-1-yl]methyl]-2-oxo-1-propan-2-ylpyridine-3-carboxamide], the IC50 at Cbl-b is below 100 nM. Moreover, the EC50 in the assay on Jurkat cells is below 100 nM.
As to `Cn1cnnc1-c1cc(F)ccc1-c1cc(NC(=O)c2cc(CNCC3(F)CCC3)cn(C3CC3)c2=O)nc(C2CC2)c1` [Example 24, N-{6-cyclopropyl-4-[4-fluoro-2-(4-methyl-4H-1,2,4-triazol-3-yl)phenyl]-2-pyridyl}-1-cyclopropyl-5-({[(1-fluorocyclobutyl)methyl]amino}methyl)-2-oxo-1,2-dihydronicotinamide], the 50% inhibitory concentration (IC50) at Cbl-b was below 100 nM. In addition, the 50% effective concentration (EC50) in the assay with Jurkat cells is below 100 nM.
Compound `COCCNCc1cc(C(=O)Nc2cc(-c3ccc(C#N)cc3-c3nc(C(F)(F)F)cn3C)cc(C3CC3)n2)c(=O)n(C2CC2)c1` [Example 46, N-(4-{4-cyano-2-[1-methyl-4-(trifluoromethyl)-2-imidazolyl]phenyl}-6-cyclopropyl-2-pyridyl)-1-cyclopropyl-5-[(2-methoxyethylamino)methyl]-2-oxo-1,2-dihydronicotinamide] showed an IC50 on Cbl-b of 100 to 1000 nM. The EC50 in the assay on Jurkat cells was in the range of 1000 to 5000 nM.
Consider `CC(C)Cn1cc(CN2CCC[C@H](C)C2)cc(C(=O)Nc2cc(-c3ccc(F)cc3-c3nncn3C)cc(C3CC3)n2)c1=O` [Example 61, N-[6-cyclopropyl-4-[4-fluoro-2-(4-methyl-1,2,4-triazol-3-yl)phenyl]pyridin-2-yl]-5-[[(3S)-3-methylpiperidin-1-yl]methyl]-1-(2-methylpropyl)-2-oxopyridine-3-carboxamide], for which the half-maximal inhibitory concentration (IC50) at Cbl-b was below 100 nM. For the same compound, in the assay with Jurkat cells, the EC50 is below 100 nM.
For `CO[C@H]1CCC[C@@H]1NCc1cc(C(=O)Nc2cc(-c3ccc(C#N)cc3C(=O)N3CC(F)(F)C3)cc(C3CC3)n2)c(=O)n(CC(F)(F)F)c1` [Example 154, N-[4-[4-cyano-2-(3,3-difluoroazetidine-1-carbonyl)phenyl]-6-cyclopropylpyridin-2-yl]-5-[[[(1S,2S)-2-methoxycyclopentyl]amino]methyl]-2-oxo-1-(2,2,2-trifluoroethyl)pyridine-3-carboxamide], the IC50 at Cbl-b is below 100 nM. Further, the EC50 in the assay with Jurkat cells is below 100 nM.
As to `Cc1cccnc1-c1cc(C#N)ccc1-c1cc(NC(=O)c2cc(CN3CCO[C@H](C)C3)cn(C3CC3)c2=O)nc(C2CC2)c1` [Example 75, N-[4-[4-cyano-2-(3-methylpyridin-2-yl)phenyl]-6-cyclopropylpyridin-2-yl]-1-cyclopropyl-5-[[(2R)-2-methylmorpholin-4-yl]methyl]-2-oxopyridine-3-carboxamide], the concentration for half-maximal inhibition (IC50) on Cbl-b fell in the range of 100 to 1000 nM. Besides, the EC50 in the assay on Jurkat cells was 1000 to 5000 nM.
Compound `Cn1cnnc1-c1cc(F)ccc1-c1cc(NC(=O)c2cc(C3CC3)cn(C3CC3)c2=O)nc(C2CC2)c1` [Example 29, N-{6-Cyclopropyl-4-[4-fluoro-2-(4-methyl-4H-1,2,4-triazol-3-yl)phenyl]-2-pyridyl}-1-cyclopropyl-5-cyclopropyl-2-oxo-1,2-dihydronicotinamide] had an IC50 on Cbl-b of 100 to 1000 nM. In the assay on Jurkat cells, the EC50 fell in the range of 1000 to 5000 nM.
Turning to `CO[C@H]1C[C@](c2cccc(NC(=O)c3cc(CN4CCC[C@H](C)C4)cn(C4CC4)c3=O)c2)(c2nncn2C)C1` [Example 81, 1-cyclopropyl-N-[3-[3-methoxy-1-(4-methyl-1,2,4-triazol-3-yl)cyclobutyl]phenyl]-5-[[(3S)-3-methylpiperidin-1-yl]methyl]-2-oxopyridine-3-carboxamide], on Cbl-b, the half-inhibitory concentration (IC50) was in the range of 100 to 1000 nM. The EC50 in the assay on Jurkat cells lay in the range of 100 to 1000 nM.
For the compound `CCOc1cc(-c2ccc(F)cc2-c2nncn2C)cc(NC(=O)c2cc(CNCCOC)cn(C3CC3)c2=O)n1` [Example 5, 1-cyclopropyl-N-[6-ethoxy-4-[4-fluoro-2-(4-methyl-1,2,4-triazol-3-yl)phenyl]pyridin-2-yl]-5-[(2-methoxyethylamino)methyl]-2-oxopyridine-3-carboxamide], the IC50 on Cbl-b was below 100 nM. For the same compound, the concentration for a half-maximal effect (EC50) in the assay with Jurkat cells was below 100 nM.
For the compound `C[C@H]1CCCN(Cc2cc(C(=O)Nc3cc(C#N)cc(-c4ccc(F)cc4C(=O)N4CC(F)C4)c3)c(=O)n(C3CC3)c2)C1` [Example 66, N-{5-cyano-4′-fluoro-2′-[(3-fluoro-1-azetidinyl)carbonyl]-3-biphenylyl}-5-{[(S)-3-methyl-1-piperidyl]methyl}-1-cyclopropyl-2-oxo-1,2-dihydronicotinamide], the IC50 at Cbl-b was 100 to 1000 nM. Besides, in the assay with Jurkat cells, the EC50 was in the range of 1000 to 5000 nM.
As for `COCCNCc1cc(C(=O)Nc2cc(-c3ccc(F)cc3-n3nncc3CF)cc(C3CC3)n2)c(=O)n(C2CC2)c1` [Example 72, 1-Cyclopropyl-N-[6-cyclopropyl-4-[4-fluoro-2-[5-(fluoromethyl)triazol-1-yl]phenyl]pyridin-2-yl]-5-[(2-methoxyethylamino)methyl]-2-oxopyridine-3-carboxamide], on Cbl-b, the IC50 was below 100 nM. Moreover, in the assay on Jurkat cells, the EC50 lay within 100 to 1000 nM.
The corresponding values for `C[C@H]1CCCN(Cc2cc(C(=O)Nc3cc(-c4ccc(C#N)cc4-c4nc(C(F)(F)F)cn4C)cc(C4CC4)n3)c(=O)n(C3CC3)c2)C1` [Example 47, N-(4-{4-cyano-2-[1-methyl-4-(trifluoromethyl)-2-imidazolyl]phenyl}-6-cyclopropyl-2-pyridyl)-5-{[(S)-3-methyl-1-piperidyl]methyl}-1-cyclopropyl-2-oxo-1,2-dihydronicotinamide] are 100 to 1000 nM and 1000 to 5000 nM.
Regarding `Cn1cc(C#N)nc1-c1cc(C#N)ccc1-c1cc(NC(=O)c2cc(CNC3(C)CCC3)cn(C3CC3)c2=O)nc(C2CC2)c1` [Example 49, N-{4-[4-cyano-2-(4-cyano-1-methyl-2-imidazolyl)phenyl]-6-cyclopropyl-2-pyridyl}-1-cyclopropyl-5-[(1-methylcyclobutylamino)methyl]-2-oxo-1,2-dihydronicotinamide], the IC50 at Cbl-b was below 100 nM. Further, the EC50 in the assay with Jurkat cells is below 100 nM.
On to `CO[C@@H]1CCN(Cc2cc(C(=O)Nc3cc(-c4ccc(F)cc4-c4nncn4C)cc(C4CC4)n3)c(=O)n(C3CC3)c2)C1` [Example 22, N-{6-cyclopropyl-4-[4-fluoro-2-(4-methyl-4H-1,2,4-triazol-3-yl)phenyl]-2-pyridyl}-5-{[(R)-3-methoxy-1-pyrrolidinyl]methyl}-1-cyclopropyl-2-oxo-1,2-dihydronicotinamide], for which the IC50 on Cbl-b was below 100 nM. In addition, in the assay with Jurkat cells, the half-maximal effective concentration (EC50) is 100 to 1000 nM.
The corresponding values for `Cc1ccnnc1-c1cc(F)ccc1-c1cc(NC(=O)c2cc(CN3CCO[C@H](C)C3)cn(C3CC3)c2=O)nc(C2CC2)c1` [Example 74, 1-cyclopropyl-N-[6-cyclopropyl-4-[4-fluoro-2-(4-methylpyridazin-3-yl)phenyl]pyridin-2-yl]-5-[[(2R)-2-methylmorpholin-4-yl]methyl]-2-oxopyridine-3-carboxamide] are 100 to 1000 nM and 1000 to 5000 nM.
The matching figures for `C[C@@H]1CN(Cc2cc(C(=O)Nc3cc(-c4ccc(C#N)cc4-c4nccn4C)cc(C4CC4)n3)c(=O)n(C3CC3)c2)CCO1` (single isomer, unassigned) [Example 36]: 100 to 1000 nM and 1000 to 5000 nM.
